The supplement of paper PMC13380429
Where a name gives a salt, the structure may show the parent alone. ± gives the standard deviation of the averaged measurements.

Legend:
Details in all cases: 72 h
U2OS [1] = experiment: cell viability relative to DMSO; higher = less toxic
Caco-2 [2] = experiment: as above
HepG2 [3] = experiment: as above
Calu-3 [4] = experiment: as above
Vero E6 [5] = experiment: as above
U2OS [6] = experiment: drug sensitivity score (DSS) for viability; higher = more toxic; extreme values may be limits of the assay
Caco-2 [7] = experiment: as above
HepG2 [8] = experiment: as above
Calu-3 [9] = experiment: as above
Vero E6 [10] = experiment: as above
U2OS [11] = experiment: relative viability EC50 (midpoint between 100% and the lowest measured viability); higher = less toxic
Caco-2 [12] = experiment: as above
HepG2 [13] = experiment: as above
Calu-3 [14] = experiment: as above
Vero E6 [15] = experiment: as above

Row | Structure (SMILES) | cell viability (U2OS [1]; 1 nM) [%] | cell viability (U2OS [1]; 10 nM) [%] | cell viability (U2OS [1]; 100 nM) [%] | cell viability (U2OS [1]; 1000 nM) [%] | cell viability (U2OS [1]; 10000 nM) [%] | cell viability (Caco-2 [2]; 1 nM) [%] | cell viability (Caco-2 [2]; 10 nM) [%] | cell viability (Caco-2 [2]; 100 nM) [%] | cell viability (Caco-2 [2]; 1000 nM) [%] | cell viability (Caco-2 [2]; 10000 nM) [%] | cell viability (HepG2 [3]; 1 nM) [%] | cell viability (HepG2 [3]; 10 nM) [%] | cell viability (HepG2 [3]; 100 nM) [%] | cell viability (HepG2 [3]; 1000 nM) [%] | cell viability (HepG2 [3]; 10000 nM) [%] | cell viability (Calu-3 [4]; 1 nM) [%] | cell viability (Calu-3 [4]; 10 nM) [%] | cell viability (Calu-3 [4]; 100 nM) [%] | cell viability (Calu-3 [4]; 1000 nM) [%] | cell viability (Calu-3 [4]; 10000 nM) [%] | cell viability (Vero E6 [5]; 1 nM) [%] | cell viability (Vero E6 [5]; 10 nM) [%] | cell viability (Vero E6 [5]; 100 nM) [%] | cell viability (Vero E6 [5]; 1000 nM) [%] | cell viability (Vero E6 [5]; 10000 nM) [%] | drug sensitivity score (U2OS [6]) | drug sensitivity score (Caco-2 [7]) | drug sensitivity score (HepG2 [8]) | drug sensitivity score (Calu-3 [9]) | drug sensitivity score (Vero E6 [10]) | relative viability EC50 (U2OS [11]) [µM] | relative viability EC50 (Caco-2 [12]) [µM] | relative viability EC50 (HepG2 [13]) [µM] | relative viability EC50 (Calu-3 [14]) [µM] | relative viability EC50 (Vero E6 [15]) [µM]
1 | O=S(=O)(O)NC1CCCCC1 [cyclamic-acid] | 98.1 | 100 | 96.8 | 101 | 96.3 | 107 | 106 | 85.7 | 98.4 | 93.5 | 112 | 99.5 | 97.8 | 98.8 | 105 | 101 | 99.7 | 90 | 101 | 97.8 | 108 | 99.8 | 101 | 99.1 | 106 | 0 | 0 | 0 | 0 | 0 | > 10 | > 10 | > 10 | > 10 | > 10
2 | COC(=O)C1=C(C)NC(C)=C([N+](=O)[O-])[C@@H]1c1ccccc1C(F)(F)F (racemic) [BAY-K-8644-(+/-)] | 95.9 ± 0.28 | 95.9 ± 4.4 | 98.8 ± 4.9 | 97.9 ± 4.7 | 96.2 ± 0.85 | 89.8 ± 1.6 | 94.5 ± 2.3 | 94.3 ± 1.8 | 106 ± 4.2 | 93.4 ± 3.4 | 99.8 ± 1.3 | 93.6 ± 3.2 | 95.2 ± 1.8 | 104 ± 10 | 94.25 ± 0.21 | 101 ± 8.4 | 99.4 ± 2.1 | 99.9 ± 7.6 | 100 ± 6.7 | 98.5 ± 3.2 | 95 ± 1.1 | 97.9 ± 1.4 | 99.4 ± 4.5 | 100 ± 2 | 101 ± 5.7 | 0 | 0 | 0 | 0 | 0 | > 10 | > 10 | > 10 | > 10 | > 10
3 | COc1ccc(NS(=O)(=O)c2ccc(N)cc2)nn1 [sulfamethoxypyridazine] | 99.9 | 94.3 | 97.4 | 101 | 99.7 | 97.9 | 99.8 | 94.8 | 101 | 98.2 | 99.7 | 114 | 110 | 97.2 | 98.8 | 93.3 | 93.5 | 100 | 97.4 | 95.6 | 103 | 100 | 97.1 | 98.6 | 104 | 0 | 0 | 0 | 0 | 0 | > 10 | > 10 | > 10 | > 10 | > 10
4 | O=S(=O)(O)c1ccc(-c2c3nc(c(-c4ccc(S(=O)(=O)O)cc4)c4ccc([nH]4)c(-c4ccc(S(=O)(=O)O)cc4)c4nc(c(-c5ccc(S(=O)(=O)O)cc5)c5ccc2[nH]5)C=C4)C=C3)cc1 [TPPS4] | 101 | 94.2 | 105 | 105 | 91.6 | 107 | 87.2 | 91.4 | 96.4 | 101 | 100 | 102 | 104 | 107 | 80.5 | 94.2 | 93.1 | 109 | 99 | 90.1 | 110 | 102 | 93.6 | 95.7 | 81.9 | 0 | 0 | 0.3 | 0 | 0.7 | > 10 | > 10 | > 10 | > 10 | > 10
5 | c1coc(-c2nnc3sc(C4CCCCC4)nn23)c1 [cardionogen-1] | 95 | 100 | 95.9 | 97.8 | 93.3 | 100 | 94.7 | 104 | 81.1 | 89.7 | 98.7 | 97.1 | 99.4 | 88.3 | 44.6 | 109 | 97.4 | 109 | 102 | 97.1 | 98.3 | 97.1 | 95.5 | 98 | 86.6 | 0 | 2.2 | 4.9 | 0 | 0.3 | > 10 | > 10 | 1.69 | > 10 | > 10
6 | Cc1cccc(C)c1NC(=O)CN1CCCCCC1 [pincainide] | 97.7 | 103 | 98 | 101 | 101 | 94.3 | 102 | 94.1 | 110 | 82 | 99.2 | 106 | 118 | 104 | 106 | 95.1 | 96 | 99 | 98.7 | 97.5 | 98.7 | 87.8 | 95.7 | 89.2 | 107 | 0 | 0.2 | 0 | 0 | 0 | > 10 | > 10 | > 10 | > 10 | > 10
7 | CCSC(=N)N [EIT-hydrobromide] | 94.2 | 101 | 97.5 | 100 | 103 | 97.7 | 98.1 | 91.1 | 102 | 107 | 96.9 | 90 | 94.3 | 102 | 103 | 108 | 96.8 | 96.9 | 104 | 103 | 94.2 | 99.4 | 96.9 | 95.8 | 105 | 0 | 0 | 0 | 0 | 0 | > 10 | > 10 | > 10 | > 10 | > 10
